One may read the IC50 as the midpoint of a concentration-inhibition curve. Read a low IC50 as greater potency in that assay.

This note sets out measurements from patent publication US10934300B2, “Atropisomerism for enhanced kinase inhibitor selectivity” (San Diego State University Foundation, priority 2017, dated 2021).

One assay addresses Fgr (Homo sapiens, UniProt P09769). In words: Z'-LYTE kinase inhibition, Fgr.
For another assay, the target named is BTK (Homo sapiens, UniProt Q06187). Put plainly: Z'-LYTE kinase inhibition, BTK.
In a further assay the target is EGFR (Homo sapiens, UniProt P00533). In words: Z'-LYTE kinase inhibition, EGFR. The note with it: EGFR relative to Yes.
The target of the next assay is Yes (Homo sapiens, UniProt P07947). Put plainly: Z'-LYTE kinase inhibition, Yes. Conditions: for IC50 of compound Kinase/IC50 of compound Yes: Yes relative to Yes.
For the next assay, the target named is CSK (Homo sapiens, UniProt P41240). In words: Z'-LYTE kinase inhibition, CSK.
A further assay concerns the target Ret kinase (Homo sapiens, UniProt P07949). Put plainly: Z'-LYTE kinase inhibition, Ret. The note with it: for IC50 of compound Kinase/IC50 of compound Yes: Ret relative to Yes; for augmentation/increase of 5's inherent selectivity: Ret versus Abl and Src.
In a further assay the target is Blk (Homo sapiens, UniProt P51451). Put plainly: Z'-LYTE kinase inhibition, Blk.
For a further assay, the target named is Kit (Homo sapiens, UniProt P10721). In words: Z'-LYTE kinase inhibition, Kit.
The next assay deals with Alk (Homo sapiens, UniProt Q9UM73). Put plainly: Z'-LYTE kinase inhibition, Alk.
Assay [1] deals with panel of tyrosine kinases. Put plainly: Kinase inhibitor profiling across a panel of tyrosine kinases, selectivity score. The class given is biochemical. The note with it: for Inhibited % (n/18) of tyrosine kinases: share of the 18 tyrosine kinases inhibited, concentration not printed in Table 3. Here is the method:
To analyze each analog's selectivity across the panel, selectivity scores were used (Davis et al., Nat. Biotechnol. 2011, 29, 1046-51), which are simply the number of kinases inhibited above a certain threshold divided by the number of kinases evaluated. […] For example at 1000 nM 2e-(R) yielded an S(40%) of 0.11 while 2e-(S) gave an S(40%) of 0.16. […] Differences in selectivity between 2e-(R) and 2e-(S) at 5000 nM (4.5 times the IC50 of 2e-(S) toward Src) and for 5 at 1000 nM (6.25 times the IC50 of 5 toward Src) can be viewed graphically across tyrosine kinases (FIG. 3). Importantly, similar trends were also observed across each of the atropisomeric series tested.
All samples were sent out to Life Technologies to obtain kinase inhibition data. A brief description of the assays and analyses are included below.
Assay Theory (SelectScreen® Kinase Profiling Services (Life Technologies, Madison, Wis. USA). The Z′-LYTE® biochemical assay employs a fluorescence-based, coupled-enzyme format and is based on the differential sensitivity of phosphorylated and non-phosphorylated peptides to proteolytic cleavage. The peptide substrate is labeled with two fluorophores—one at each end—that make up a FRET pair.
In the primary reaction, the kinase transfers the gamma-phosphate of ATP to a single tyrosine, serine or threonine residue in a synthetic FRET-peptide. In the secondary reaction, a site-specific protease recognizes and cleaves non-phosphorylated FRET-peptides. Phosphorylation of FRET-peptides suppresses cleavage by the Development Reagent. Cleavage disrupts FRET between the donor (i.e., coumarin) and acceptor (i.e., fluorescein) fluorophores on the FRET-peptide, whereas uncleaved, phosphorylated FRET-peptides maintain FRET. A ratiometric method, which calculates the ratio (the Emission Ratio) of donor emission to acceptor emission after excitation of the donor fluorophore at 400 nm, is used to quantitate reaction progress, as shown in the equation below: […]
A significant benefit of this ratiometric method for quantitating reaction progress is the elimination of well-to-well variations in FRET-peptide concentration and signal intensities. […] Both cleaved and uncleaved FRET-peptides contribute to the fluorescence signals and therefore to the Emission Ratio. The extent of phosphorylation of the FRET-peptide can be calculated from the Emission Ratio. The Emission Ratio will remain low 1f the FRET-peptide is phosphorylated (i.e., no kinase inhibition) and will be high if the FRET-peptide is non-phosphorylated (i.e., kinase inhibition).
Both cleaved and uncleaved FRET-peptides contribute to the fluorescence signals and therefore to the Emission Ratio. The extent of phosphorylation of the FRET-peptide can be calculated from the Emission Ratio. The Emission Ratio will remain low if the FRET-peptide is phosphorylated (i.e., no kinase inhibition) and will be high if the FRET-peptide is non-phosphorylated (i.e., kinase inhibition).

The target of a further assay is Src kinase (Homo sapiens, UniProt P12931). In words: Z'-LYTE kinase inhibition, Src. Conditions: Src relative to Yes.
The next assay deals with pdgfr-b (Homo sapiens, UniProt P09619). In words: Z'-LYTE kinase inhibition, pdgfr-b.
The target of another assay is Lyn (Homo sapiens, UniProt P07948). In words: Z'-LYTE kinase inhibition, Lyn.
In a further assay the target is Hck (Homo sapiens, UniProt P08631). Put plainly: Z'-LYTE kinase inhibition, Hck.
The target in the next assay is Lck (Homo sapiens, UniProt P06239). Put plainly: Z'-LYTE kinase inhibition, Lck.
Another assay addresses pdgfr-a (Homo sapiens, UniProt P16234). Put plainly: Z'-LYTE kinase inhibition, pdgfr-a.
Another assay concerns the target Fyn (Homo sapiens, UniProt P06241). Put plainly: Z'-LYTE kinase inhibition, Fyn.
In a further assay the target is Abl (Homo sapiens, UniProt P00519). In words: Z'-LYTE kinase inhibition, Abl. The note with it: for IC50 of compound Kinase/IC50 of compound Yes: Abl relative to Yes.
Sequence of Abl (P00519 whole entry): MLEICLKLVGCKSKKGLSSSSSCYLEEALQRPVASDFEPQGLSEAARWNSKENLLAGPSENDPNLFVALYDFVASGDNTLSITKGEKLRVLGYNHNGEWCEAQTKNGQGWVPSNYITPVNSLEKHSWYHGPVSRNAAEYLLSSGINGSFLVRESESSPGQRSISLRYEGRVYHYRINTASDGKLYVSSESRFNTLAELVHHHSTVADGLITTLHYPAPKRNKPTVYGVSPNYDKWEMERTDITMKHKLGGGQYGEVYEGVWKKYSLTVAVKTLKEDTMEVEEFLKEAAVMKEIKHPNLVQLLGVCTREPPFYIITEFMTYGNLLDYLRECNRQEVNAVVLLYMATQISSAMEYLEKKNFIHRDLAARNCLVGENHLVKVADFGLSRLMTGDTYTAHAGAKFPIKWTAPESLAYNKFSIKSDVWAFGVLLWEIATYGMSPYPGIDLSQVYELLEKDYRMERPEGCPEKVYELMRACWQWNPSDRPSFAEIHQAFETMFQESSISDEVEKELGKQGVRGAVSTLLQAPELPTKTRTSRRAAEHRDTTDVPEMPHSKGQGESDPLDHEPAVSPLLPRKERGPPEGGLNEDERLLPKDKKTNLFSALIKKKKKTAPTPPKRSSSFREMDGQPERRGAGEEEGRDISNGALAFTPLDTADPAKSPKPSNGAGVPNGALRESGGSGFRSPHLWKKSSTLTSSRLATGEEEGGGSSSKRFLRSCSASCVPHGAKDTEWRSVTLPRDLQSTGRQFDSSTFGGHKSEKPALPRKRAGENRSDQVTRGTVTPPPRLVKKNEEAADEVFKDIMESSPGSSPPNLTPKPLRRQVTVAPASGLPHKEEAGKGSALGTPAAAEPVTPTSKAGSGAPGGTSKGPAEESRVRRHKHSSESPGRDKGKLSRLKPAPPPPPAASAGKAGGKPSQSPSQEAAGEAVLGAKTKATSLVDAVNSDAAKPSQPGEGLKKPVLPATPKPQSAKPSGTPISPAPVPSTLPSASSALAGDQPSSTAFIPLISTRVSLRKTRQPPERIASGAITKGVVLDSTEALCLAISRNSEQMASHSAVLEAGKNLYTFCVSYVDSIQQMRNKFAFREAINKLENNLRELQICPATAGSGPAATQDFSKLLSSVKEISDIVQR

Sequence of Ret kinase (P07949 29-1114): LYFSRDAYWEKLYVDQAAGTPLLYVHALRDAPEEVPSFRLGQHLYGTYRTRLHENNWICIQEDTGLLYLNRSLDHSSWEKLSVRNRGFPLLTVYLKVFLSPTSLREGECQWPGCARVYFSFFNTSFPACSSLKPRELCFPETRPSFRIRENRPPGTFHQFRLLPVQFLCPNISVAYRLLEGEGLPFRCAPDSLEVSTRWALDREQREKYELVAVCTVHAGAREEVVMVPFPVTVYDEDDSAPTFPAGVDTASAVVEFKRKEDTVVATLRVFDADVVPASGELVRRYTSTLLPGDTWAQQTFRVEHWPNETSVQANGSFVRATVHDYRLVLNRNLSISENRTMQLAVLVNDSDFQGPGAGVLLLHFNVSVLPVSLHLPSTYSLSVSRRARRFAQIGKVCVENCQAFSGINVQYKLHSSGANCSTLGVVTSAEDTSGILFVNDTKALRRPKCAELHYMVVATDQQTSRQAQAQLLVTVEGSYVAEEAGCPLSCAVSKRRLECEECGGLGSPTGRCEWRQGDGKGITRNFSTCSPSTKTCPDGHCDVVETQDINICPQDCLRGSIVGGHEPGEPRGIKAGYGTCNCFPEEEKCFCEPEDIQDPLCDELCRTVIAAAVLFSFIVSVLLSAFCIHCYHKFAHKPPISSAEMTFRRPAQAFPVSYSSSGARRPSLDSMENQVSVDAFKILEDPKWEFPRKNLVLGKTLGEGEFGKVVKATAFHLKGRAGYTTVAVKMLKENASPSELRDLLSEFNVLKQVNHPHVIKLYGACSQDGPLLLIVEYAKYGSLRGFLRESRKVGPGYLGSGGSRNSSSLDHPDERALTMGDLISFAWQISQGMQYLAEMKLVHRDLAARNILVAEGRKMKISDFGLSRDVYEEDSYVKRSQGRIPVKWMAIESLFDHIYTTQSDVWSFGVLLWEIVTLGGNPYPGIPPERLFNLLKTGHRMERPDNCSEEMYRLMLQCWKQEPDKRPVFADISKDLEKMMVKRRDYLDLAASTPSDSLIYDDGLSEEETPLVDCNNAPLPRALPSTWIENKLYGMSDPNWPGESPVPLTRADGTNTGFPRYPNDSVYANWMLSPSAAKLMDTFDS
Sequence of Yes (P07947 whole entry): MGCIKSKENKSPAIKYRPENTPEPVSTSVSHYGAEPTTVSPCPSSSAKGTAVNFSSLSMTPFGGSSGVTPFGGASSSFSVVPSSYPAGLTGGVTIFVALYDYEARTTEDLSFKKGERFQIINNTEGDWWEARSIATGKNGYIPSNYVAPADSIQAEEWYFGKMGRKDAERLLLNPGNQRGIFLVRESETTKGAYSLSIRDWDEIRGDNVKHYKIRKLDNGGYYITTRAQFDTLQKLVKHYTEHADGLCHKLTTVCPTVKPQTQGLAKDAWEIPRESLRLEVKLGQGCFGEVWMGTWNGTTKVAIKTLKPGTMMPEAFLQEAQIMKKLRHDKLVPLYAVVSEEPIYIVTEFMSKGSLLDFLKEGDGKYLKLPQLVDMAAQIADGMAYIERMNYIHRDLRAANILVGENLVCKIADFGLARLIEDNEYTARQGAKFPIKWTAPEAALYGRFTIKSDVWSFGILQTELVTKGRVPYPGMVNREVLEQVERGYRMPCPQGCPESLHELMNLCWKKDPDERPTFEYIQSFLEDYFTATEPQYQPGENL
Sequence of Src kinase (P12931 whole entry): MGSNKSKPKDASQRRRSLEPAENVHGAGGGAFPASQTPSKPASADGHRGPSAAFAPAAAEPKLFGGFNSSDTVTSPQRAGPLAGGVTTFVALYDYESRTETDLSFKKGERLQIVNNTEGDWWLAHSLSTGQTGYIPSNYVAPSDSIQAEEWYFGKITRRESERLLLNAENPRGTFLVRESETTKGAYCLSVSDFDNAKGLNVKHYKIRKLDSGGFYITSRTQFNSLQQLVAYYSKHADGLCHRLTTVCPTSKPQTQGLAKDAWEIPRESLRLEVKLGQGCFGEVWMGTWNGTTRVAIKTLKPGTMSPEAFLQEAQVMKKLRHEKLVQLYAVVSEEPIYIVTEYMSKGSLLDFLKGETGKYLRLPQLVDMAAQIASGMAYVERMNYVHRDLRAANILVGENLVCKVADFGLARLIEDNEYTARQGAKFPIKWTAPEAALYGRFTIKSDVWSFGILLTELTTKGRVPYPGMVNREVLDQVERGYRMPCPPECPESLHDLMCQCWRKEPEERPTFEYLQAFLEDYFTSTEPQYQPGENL
Sequence of EGFR (P00533 25-1210): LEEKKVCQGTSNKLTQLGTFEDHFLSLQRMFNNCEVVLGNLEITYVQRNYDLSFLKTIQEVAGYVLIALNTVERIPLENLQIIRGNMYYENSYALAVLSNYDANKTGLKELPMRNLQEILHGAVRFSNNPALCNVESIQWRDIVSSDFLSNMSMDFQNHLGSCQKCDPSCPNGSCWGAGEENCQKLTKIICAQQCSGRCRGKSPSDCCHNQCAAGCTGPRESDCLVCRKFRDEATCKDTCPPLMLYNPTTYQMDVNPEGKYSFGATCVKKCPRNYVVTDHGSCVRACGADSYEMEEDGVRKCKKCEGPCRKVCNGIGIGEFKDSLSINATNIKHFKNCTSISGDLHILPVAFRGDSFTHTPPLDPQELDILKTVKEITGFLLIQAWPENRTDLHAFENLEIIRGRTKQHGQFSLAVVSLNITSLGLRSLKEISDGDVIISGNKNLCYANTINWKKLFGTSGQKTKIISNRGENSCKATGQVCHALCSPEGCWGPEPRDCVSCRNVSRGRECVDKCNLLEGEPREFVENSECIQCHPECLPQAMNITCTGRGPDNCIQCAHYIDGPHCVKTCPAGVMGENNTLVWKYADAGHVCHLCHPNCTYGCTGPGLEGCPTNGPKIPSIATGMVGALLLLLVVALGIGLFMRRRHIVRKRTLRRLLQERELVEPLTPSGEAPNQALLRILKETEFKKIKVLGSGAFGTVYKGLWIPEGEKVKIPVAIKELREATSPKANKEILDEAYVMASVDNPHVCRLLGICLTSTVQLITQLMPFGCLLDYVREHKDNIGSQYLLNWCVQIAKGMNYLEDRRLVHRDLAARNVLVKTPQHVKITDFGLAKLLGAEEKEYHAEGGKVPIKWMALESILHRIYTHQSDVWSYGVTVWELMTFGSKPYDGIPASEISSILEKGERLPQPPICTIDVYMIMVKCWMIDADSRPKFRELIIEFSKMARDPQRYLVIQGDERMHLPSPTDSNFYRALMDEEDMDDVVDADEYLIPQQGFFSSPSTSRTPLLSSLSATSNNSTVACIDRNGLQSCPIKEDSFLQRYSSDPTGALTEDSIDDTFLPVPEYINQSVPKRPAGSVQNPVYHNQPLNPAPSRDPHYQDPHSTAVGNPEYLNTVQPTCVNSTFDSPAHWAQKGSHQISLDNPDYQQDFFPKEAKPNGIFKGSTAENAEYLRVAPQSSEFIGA
Sequence of Fyn (P06241 whole entry): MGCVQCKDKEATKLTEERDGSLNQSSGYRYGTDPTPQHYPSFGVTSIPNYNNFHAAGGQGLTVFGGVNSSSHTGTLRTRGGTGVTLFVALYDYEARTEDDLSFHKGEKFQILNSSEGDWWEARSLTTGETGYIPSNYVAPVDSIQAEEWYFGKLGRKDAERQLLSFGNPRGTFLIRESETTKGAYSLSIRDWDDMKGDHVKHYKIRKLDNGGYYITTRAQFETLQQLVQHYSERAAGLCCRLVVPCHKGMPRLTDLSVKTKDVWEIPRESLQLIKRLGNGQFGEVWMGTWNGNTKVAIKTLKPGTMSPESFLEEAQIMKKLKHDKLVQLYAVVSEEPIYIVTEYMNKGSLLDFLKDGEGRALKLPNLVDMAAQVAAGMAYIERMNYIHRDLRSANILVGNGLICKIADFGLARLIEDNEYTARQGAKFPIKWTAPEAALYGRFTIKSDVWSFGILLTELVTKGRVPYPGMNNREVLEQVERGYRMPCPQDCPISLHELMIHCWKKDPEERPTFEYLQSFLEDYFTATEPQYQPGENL

With `COc1ccc(Cl)c(-c2c(Cl)n(C(C)(C)C)c3ncnc(N)c23)c1` (single isomer, unassigned) [2e-(S), 7-(tert-butyl)-6-chloro-5-(2-chloro-5-methoxyphenyl)-7H-pyrrolo[2,3-d]pyrimidin-4-amine], the “S/R (5000 nM): % inhibition 2e-(S) / % inhibition 2e-(R)” value on Fgr came to 1.05; at BTK, 1.86; on Yes (Yes, 5000 nM) it was 0.97; on CSK, 1.28; on Ret kinase (Ret, 5000 nM) it was 0.44; on Blk it was 1.46. Further, the “S/R (5000 nM): % inhibition 2e-(S) / % inhibition 2e-(R)” value is listed as 1.38 at Kit; 0.38 on Alk; 1.23 on pdgfr-b; 1.31 at Lyn; 1.25 at Hck; 1.05 at Lck. Also, the “S/R (5000 nM): % inhibition 2e-(S) / % inhibition 2e-(R)” value is given as 1.63 at pdgfr-a; 1.27 at Fyn; 2.57 at Abl (Abl, 5000 nM). The “IC50 of compound Kinase/IC50 of compound Yes” value is recorded as greater than 10.0 against EGFR; 1 on Yes; 10.53 against Ret kinase; 1.64 at Src kinase; 1.96 against Abl. Further, on Ret kinase (listed as 2e-(5)), the “augmentation/increase of 5's inherent selectivity” value is listed as roughly 8 fold. In addition, the “S(40%): number of kinases inhibited greater than 40% divided by number of kinases tested (including Src)” value in assay [1] (1000 nM) is reported as 0.16; in [1] (5000 nM), 0.61. In assay [1], the “Inhibited % (n/18) of tyrosine kinases” value is on record as “(S): Inhibited 16% (3/18)”.

For `COc1ccc(Cl)c(-c2c(Cl)n(C(C)(C)C)c3ncnc(N)c23)c1` (single isomer, unassigned) [2e-(R), 7-(tert-butyl)-6-chloro-5-(2-chloro-5-methoxyphenyl)-7H-pyrrolo[2,3-d]pyrimidin-4-amine], the “IC50 of compound Kinase/IC50 of compound Yes” value against EGFR is greater than 10.0; at Yes, 1; against Ret kinase it was 2.07; against Src kinase it was 6.22; against Abl, 10.0. Moreover, the “augmentation/increase of 5's inherent selectivity” value at Ret kinase is 4 fold. Besides, the “S(40%): number of kinases inhibited greater than 40% divided by number of kinases tested (including Src)” value is given as 0.11 in assay [1] (1000 nM) and 0.44 in [1] (5000 nM). In addition, the “Inhibited % (n/18) of tyrosine kinases” value in [1] is on record as “(R): Inhibited 11% (2/18)”. On Abl, this compound displayed an IC50 of no less than 10 µM.
